Columns and labels:
Type in all cases: cell-based
[1] = system: GIST882 cell line; assay: GIST882 cell growth assay (Cell-Titer-Glo); details: for IC50: Homo sapiens, GIST882, 96 hours
Method: (§1) Briefly, cells are seeded into 96-well, tissue-culture treated, opaque white plates (Thermo Electron, Vantaa, Finland), at between 5000 and 7500 cells per well, depending on the speed of cell proliferation, in 100 μl of appropriate growth medium (determined by the ATCC). Cells are then exposed to the appropriate concentration of drug or an equal amount of DMSO (drug diluent) and allowed to grow in its presence for 96 hours. Following this, 100 μl of Cell-Titer-Glo reagent (Promega, Inc., Madison, Wis.) is added to each well. Plates are then shaken for 2 minutes at room temperature to allow for cell lysis and incubated for 10 minutes to stabilize the luminescent signal. Similar to the Kinase-Glo assay reagent, this reagent contains both luciferase enzyme and its substrate luciferin. Luciferase, activated by ATP in the cell lysate, catalyzes the conversion of luciferin to oxyluciferin, a reaction which produces light. The amount of light produced is proportionate to the amount of ATP in the cell lysate, which is itself proportional to cell number and gives an index of cellular proliferation.
as §1, with “Various compounds of the invention, including (IV-1-3) (also referred to as HPK16), (III-1-3) (also referred to as HPK56), (III-1-4) (also referred to as HPK57), (III-1-5) (also referred to as HPK59), and (II-2-7) (also referred to as HPK61) were tested for activity against GIST tumor cells using the GIST882 cell line. Briefly,” for “Briefly,”

[2] = system: PANC-1 cells; assay: Cancer cell cytotoxicity assay (sulforhodamine B); details: Homo sapiens, 96 h; PANC-1, 4 days; read-out: IC50 PDGFR PANC-1
Method: (§2) To validate the hypothesis that the designed c-kit/PDGFR tyrosine kinase inhibitors mediate GIST882 cell killing and PDGFR-mediated cell killing of pancreatic cancer cell lines (CFPAC-1, PANC-1 and MIA PaCa-2), an in vitro cytotoxicity assay was performed. The GIST882 cell line used in this study has a c-kit gain-of-function mutation (K642E). The assay utilized the Cell Titer 965 Non-Radioactive Cell Proliferation Assay (Promega Corp., Madison, Wis.). First the cells were cultured. GIST882 cells were provided by Dr. Jonathan A. Fletcher (Dana-Farber Cancer Institute, Boston, Mass.). PANC-1 and MIAPaCa-2 cells were provided by Dr. Daniel Von Hoff (Arizona Cancer Center, Tucson, Ariz.). GIST882 cells were cultured in RPMI 1640 medium (Cat #21870-076, Invitrogen Corporation) supplemented with 300 mg/L L-glutamine, 100 unit/ml penicillin, 100 μg/ml streptomycin and 15% fetal bovine serum. PANC-1 and MIAPaCa-2 cells were maintained in RPMI 1640 medium (cat #10-040, Mediatech, Inc.) supplemented with 100 unit/ml penicillin, 100 μg/ml streptomycin and 10% fetal bovine serum. All the cell lines were incubated in a humidified incubator at 37° C. with 5% CO2 atmosphere.
(§3) Cells were plated at a density of 2000 to 10000 cells per well, depending on their growth rate, in 0.1 mL medium on day 0 in 96-well Falcon microtiter plates (#3072, Becton-Dickinson Labware, Lincoln Park, N.J.). On day 1, 10 μL of serial dilutions of the individual compounds were added to the plates in replicates of 4. After incubation for 4 days at 37° C. in a humidified incubator, the cells were fixed with 10% Trichloroacetic acid solution (Catalog No. 490-10, Sigma). Subsequently, they were labeled with 0.04% Sulforhodamine B (S9012, Sigma) in 1% acetic acid. After multiple washes to remove excess dye, 100 μl of 50 mM Tris solution was added to each well in order to dissolve the dye. The absorbance of each well was read on a plate reader (Wallac Vector^2, PerkinElmer) at the wavelength of 570 nm. Data were expressed as the percentage of survival of control calculated from the absorbance corrected for background absorbance. The surviving percent of cells was determined by dividing the mean absorbance values of the […] by the mean absorbance values of the control and multiplying by 100.

[3] = system: MIAPaCa-2 cells; assay: Cancer cell cytotoxicity assay (sulforhodamine B); details: Homo sapiens, MIA PaCa-2, 96 h; MIAPaCa-2, 4 days; read-out: IC50 PDGFR MIAPaCa
Method: as §2, §3

[4] = system: GIST882 cell line; assay: Cancer cell cytotoxicity assay (sulforhodamine B); details: for IC50: Homo sapiens, 96 h, GIST882, 4 days, read-out: IC50 c-kit GIST882
Method: To validate the hypothesis that the designed c-kit/PDGFR tyrosine kinase inhibitors mediate GIST882 cell killing and PDGFR-mediated cell killing of pancreatic cancer cell lines (CFPAC-1, PANC-1 and MIA PaCa-2), an in vitro cytotoxicity assay was performed. The GIST882 cell line used in this study has a c-kit gain-of-function mutation (K642E). […] First the cells were cultured. GIST882 cells were provided by Dr. Jonathan A. Fletcher (Dana-Farber Cancer Institute, Boston, Mass.). PANC-1 and MIAPaCa-2 cells were provided by Dr. Daniel Von Hoff (Arizona Cancer Center, Tucson, Ariz.). […] All the cell lines were incubated in a humidified incubator at 37° C. with 5% CO2 atmosphere.
as §3, with “After” for “Cells were plated at a density of 2000 to 10000 cells per well, depending on their growth rate, in 0.1 mL medium on day 0 in 96-well Falcon microtiter plates (#3072, Becton-Dickinson Labware, Lincoln Park, N.J.). On day 1, 10 μL of serial dilutions of the individual compounds were added to the plates in replicates of 4. After”

SMILES	IC50 [1]	IC50 [2]	IC50 [3]	IC50 [4]	inhibitory activity in GIST882 cell line (in words) ([1]; FIG. 29, 96 hours)	cells alive at day 4 ([4]; GIST882, day 4)
COc1cc2ncnc(N3CCN(C(=S)Nc4ccc(S(=O)(=O)Nc5ncccn5)cc4)CC3)c2cc1OC [HPK16, 4-(6,7-Dimethoxy-quinazolin-4-yl)-piperazine-1-carbothioic acid [4-(pyrimidin-2-ylsulfamoly)-phenyl]-amide]	50 µM	> 50 µM	> 50 µM	50 µM		
S=C(NCc1ccc2c(c1)OCO2)N1CCN(c2ncnc3c2oc2ccccc23)CC1 [HPK56, 4-Benzo[4,5]furo[3,2-d]pyrimidin-4-yl-piperazine-1-carbothioic acid (benzo[1,3]dioxol-5-ylmethyl)-amide]	1.6 µM	3 µM	2.1 µM	1.6 µM	highest inhibitory activity	5%
COc1cc2[nH]c3ncnc(N4CCN(C(=S)Nc5ccc(S(=O)(=O)Nc6ncccn6)cc5)CC4)c3c2cc1OC [HPK62, 4-(6,7-Dimethoxy-9H-1,3,9-triaza-fluoren-4-yl)-piperazine-1-carbothioic acid [4-(pyrimidin-2-ylsulfamoyl)-phenyl]-amide]	28 µM	> 50 µM	> 50 µM	28 µM		
